These compounds were tested against T1, recombinant human 5-lipoxygenase (Homo sapiens, UniProt P09917) (assay: Human 5-Lipoxygenase Enzyme Assay). Settings: spectrophotometric assay, purified recombinant human 5-lipoxygenase, 20 μM arachidonic acid.
T1 construct: made in house; host or cells: Sf9 cells infected with recombinant baculovirus rvH5LO (8-1)
T1 sequence (P09917 1-674): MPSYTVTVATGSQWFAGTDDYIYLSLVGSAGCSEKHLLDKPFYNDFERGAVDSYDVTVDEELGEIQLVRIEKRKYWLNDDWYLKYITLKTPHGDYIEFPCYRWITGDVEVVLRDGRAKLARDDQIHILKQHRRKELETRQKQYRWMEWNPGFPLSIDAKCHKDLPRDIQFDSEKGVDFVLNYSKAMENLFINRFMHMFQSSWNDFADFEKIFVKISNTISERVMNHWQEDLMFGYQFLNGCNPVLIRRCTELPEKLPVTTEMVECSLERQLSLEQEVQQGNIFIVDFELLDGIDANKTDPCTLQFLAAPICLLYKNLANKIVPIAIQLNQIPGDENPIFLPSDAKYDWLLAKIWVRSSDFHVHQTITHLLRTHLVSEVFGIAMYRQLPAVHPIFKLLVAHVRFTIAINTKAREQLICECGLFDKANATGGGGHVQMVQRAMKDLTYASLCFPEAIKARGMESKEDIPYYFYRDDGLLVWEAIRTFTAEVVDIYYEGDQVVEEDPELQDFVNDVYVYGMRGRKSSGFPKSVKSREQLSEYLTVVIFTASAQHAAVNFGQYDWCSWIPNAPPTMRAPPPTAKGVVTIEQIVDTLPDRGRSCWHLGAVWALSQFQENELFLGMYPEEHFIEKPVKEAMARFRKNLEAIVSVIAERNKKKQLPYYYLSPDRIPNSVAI
Format: biochemical
Procedure: Compounds of this invention can be tested using the following assays to determine their mammalian leukotriene biosynthesis inhibiting activity.
Human 5-Lipoxygenase Enzyme Assay
The activity of 5-lipoxygenase was measured using a spectrophotometric assay and recombinant human 5-lipoxygenase as a source of enzyme. Human 5-lipoxygenase was purified from Sf9 cells infected with the recombinant baculovirus rvH5LO (8-1) containing the coding sequence for human 5-lipoxygenase as described by Percival et al., (Eur. J. Biochem 210, 109-117, 1992). The enzymatic activity was measured using a spectrophotometric assay from the optimal rate of conjugated diene formation (absorbance at 238 nm) using the procedure described in Riendeau et al. (Biochem. Pharmacol. 38, 2313-2321, 1989) with minor modifications. The incubation mixture contained 25 mM potassium phosphate, pH 7.5, 0.1 mM EDTA, 0.3 mM CaCl2, 24 μg/ml phosphatidylcholine, 0.1 mM ATP, 0.5 mM DTT, 20 μM arachidonic acid (2 μl from a 100-fold solution in ethanol), inhibitor (2 μl aliquot from a 100-fold solution in DMSO) and an aliquot of purified 5-lipoxygenase. Reactions were initiated by the addition of the purified 5-lipoxygenase and the rate of conjugated diene production was followed for 5 minutes at room temperature. The reaction was performed in a Costar UV plate (Cat. # 3635) and the absorbance changes at 238 nm were recorded with a Molecular Devices UV/VIS 96 well spectrophotometer (Spectra Max 190) using SOFTmax PRO software. Enzymatic activity was calculated from the optimal rate of the reaction by a linear fit of the increase in absorbance at 238 nm over 36 seconds. When the rate of diene formation is low (<0.01 Absorbance Unit/min) the linear fit is performed over 180 seconds.

Point of comparison: `CC[C@](O)(c1cn(Cc2ccc3c(-c4ccc(F)cc4)cc(C#N)nc3c2)nn1)C(F)(F)F` [Example 41, (S)-4-(4-fluorophenyl)-7-({4-[1-hydroxy-1-(trifluoromethyl)propyl]-1H-1,2,3-triazol-1-yl}methyl)quinoline-2-carbonitrile], IC50 51 nM. Against it:
- CC[C@](O)(c1cn(Cc2ccc3c(-c4cc(Cl)cc(Cl)c4)cc(C#N)nc3c2)nn1)C(F)(F)F [Example 57, (S)-4-(3,5-dichlorophenyl)-7-({4-[1-hydroxy-1-(trifluoromethyl)propyl]-1H-1,2,3-triazol-1-yl}methyl)quinoline-2-carbonitrile] — 1.7-fold higher, 86 nM
- O=c1cc(-c2cccc(F)c2)c2ccc(Cn3cc(Cc4ccccc4)nn3)cc2o1 [Example 22, 7-[(4-benzyl-1H-1,2,3-triazol-1-yl)methyl]-4-(3-fluorophenyl)-2H-chromen-2-one] — 19-fold higher, 951 nM
- CC[C@](O)(c1cn(Cc2ccc3c(-c4ccc(F)cc4)cc(=O)oc3c2)nn1)C(F)(F)F [Example 2, (S)-4-(4-Fluorophenyl)-7-[4-(1-hydroxy-1-trifluoromethyl-propyl)-[1,2,3]triazol-1-ylmethyl]-chromen-2-one] — within 1.5-fold, 50 nM
- CC[C@](O)(c1cn(Cc2ccc3c(-c4ccccc4F)cc(=O)oc3c2)nn1)C(F)(F)F [Example 3, (S)-4-(2-Fluoro-phenyl)-7-[4-(1-hydroxy-1-trifluoromethyl-propyl)-[1,2,3]triazol-1-ylmethyl]-chromen-2-one] — 24-fold higher, 1210 nM
- CC[C@](O)(c1cn(Cc2ccc3c(-c4ccc(F)cc4)cc(OC)nc3c2)nn1)C(F)(F)F [Example 88, (S)-1,1-trifluoro-2-(1-{[4-(4-fluorophenyl)-2-methoxyquinolin-7-yl]methyl}-1H-1,2,3-triazol-4-yl)butan-2-ol] — within 1.5-fold, 41 nM
- N#Cc1cc(-c2cccc(F)c2)c2ccc(Cn3cc(C(O)(C4CC4)C4CC4)nn3)cc2n1 [Example 47, 7-({4-[dicyclopropyl(hydroxy)methyl]-1H-1,2,3-triazol-1-yl}methyl)-4-(3-fluorophenyl)-quinoline-2-carbonitrile] — within 1.5-fold, 62 nM
- CC[C@](O)(c1cn(Cc2ccc3c(-c4ccccc4)cc(C#N)nc3c2)nn1)C(F)(F)F [Example 39, (S)-7-({4-[1-hydroxy-1-(trifluoromethyl)propyl]-1H-1,2,3-triazol-1-yl}methyl)-4-phenylquinoline-2-carbonitrile] — 1.5-fold lower, 34 nM
- CC[C@](O)(c1cn(Cc2ccc3c(-c4cc(F)cc(F)c4)cc(C#N)nc3c2)nn1)C(F)(F)F [Example 58, (S)-4-(3,5-difluorophenyl)-7-({4-[1-hydroxy-1-(trifluoromethyl)propyl]-1H-1,2,3-triazol-1-yl}methyl)quinoline-2-carbonitrile] — within 1.5-fold, 52 nM
- N#Cc1cc(-c2ccccc2)c2ccc(Cn3cc(C(O)(C4CC4)C4CC4)nn3)cc2n1 [Example 48, 7-({4-[dicyclopropyl(hydroxy)methyl]-1H-1,2,3-triazol-1-yl}methyl)-4-phenylquinoline-2-carbonitrile] — 1.6-fold higher, 82 nM
- O=c1cc(-c2ccc(F)cc2)c2ccc(Cn3cc(C(O)(C4CC4)C4CC4)nn3)cc2o1 [Example 26, 7-[4-(Dicyclopropyl-hydroxy-methyl)-[1,2,3]triazol-1-ylmethyl]-4-(4-fluoro-phenyl)-chromen-2-one] — 1.9-fold higher, 98 nM
- CC[C@](O)(c1cn(Cc2ccc3c(-c4cccc(F)c4)cc(=O)oc3c2)nn1)C(F)(F)F [Example 1, (S)-4-(3-fluorophenyl)-7-({4-[1-hydroxy-1-(trifluoromethyl)propyl]-1H-1,2,3-triazol-1-yl}methyl)-2H-chromen-2-one] — within 1.5-fold, 38 nM
- CCC(O)(CC)c1cn(Cc2ccc3c(-c4ccccc4)cc(C#N)nc3c2)nn1 [Example 43, 7-{[4-(1-ethyl-1-hydroxypropyl)-1H-1,2,3-triazol-1-yl]methyl}-4-phenylquinoline-2-carbonitrile] — 5.4-fold higher, 275 nM
- N#Cc1cc(-c2ccc(F)cc2)c2ccc(Cn3cc(C(O)(C4CC4)C4CC4)nn3)cc2n1 [Example 46, 7-({4-[dicyclopropyl(hydroxy)methyl]-1H-1,2,3-triazol-1-yl}methyl)-4-(4-fluorophenyl)quinoline-2-carbonitrile] — 2-fold higher, 103 nM
- CC[C@](O)(c1cn(Cc2ccc3c(-c4cccc(F)c4)cc(C#N)nc3c2)nn1)C(F)(F)F [Example 40, (S)-4-(3-fluorophenyl)-7-({4-[1-hydroxy-1-(trifluoromethyl)propyl]-1H-1,2,3-triazol-1-yl}methyl)quinoline-2-carbonitrile] — within 1.5-fold, 54 nM
- CC[C@](O)(c1cn(Cc2ccc3c(-c4ccc(F)cc4)cc(N(C)C)nc3c2)nn1)C(F)(F)F [Example 87, (S)-2-(1-{[2-(dimethylamino)-4-(4-fluorophenyl)quinolin-7-yl]methyl}-1H-1,2,3-triazol-4-yl)-1,1,1-trifluorobutan-2-ol] — 3-fold lower, 17 nM
- CC[C@](O)(c1cn(Cc2ccc3c(-c4ccccc4)cc(=O)oc3c2)nn1)C(F)(F)F [Example 5, (S)-7-[4-(1-Hydroxy-1-trifluoromethyl-propyl)-[1,2,3]triazol-1-ylmethyl]-4-phenyl-chromen-2-one] — within 1.5-fold, 45 nM
- CCC(O)(c1nnn(Cc2ccc3c(-c4cccc(F)c4)cc(=O)oc3c2)c1C)C(F)(F)F (stereo not drawn) [Example 27, 4-(3-fluorophenyl)-7-{[4-(1-hydroxy-1-(trifluoromethyl)propyl)-5-methyl-1H-1,2,3-triazol-1-yl}methyl]-2H-chromen-2-one] — 5.8-fold higher, 298 nM
- CCCC(O)(c1cn(Cc2ccc3c(-c4cccc(F)c4)cc(=O)oc3c2)nn1)C(F)(F)F (stereo not drawn) [Example 30, 4-(3-Fluorophenyl)-7-({4-[1-hydroxy-1-(trifluoromethyl)butyl]-1H-1,2,3-triazol-1-yl}methyl)-2H-chromen-2-one] — within 1.5-fold, 37 nM
- CCC(O)(CC)c1cn(Cc2ccc3c(-c4cccc(F)c4)cc(=O)oc3c2)nn1 [Example 12, 7-[4-(1-Ethyl-1-hydroxy-propyl)-[1,2,3]triazol-1-ylmethyl]-4-(3-fluoro-phenyl)-chromen-2-one] — 6.4-fold higher, 324 nM
- CC[C@](O)(c1cn(Cc2ccc3c(-c4ccsc4)cc(=O)oc3c2)nn1)C(F)(F)F [Example 8, (S)-7-[4-(1-Hydroxy-1-trifluoromethyl-propyl)-[1,2,3]triazol-1-ylmethyl]-4-thiophen-3-yl-chromen-2-one] — within 1.5-fold, 50 nM
- CC[C@](O)(c1cn(Cc2ccc3c(-c4coc(C)n4)cc(=O)oc3c2)nn1)C(F)(F)F [Example 37, (S)-7-({4-[1-hydroxy-1-(trifluoromethyl)propyl]-1H-1,2,3-triazol-1-yl}methyl)-4-(2-methyl-1,3-oxazol-4-yl)-2H-chromen-2-one] — 6.9-fold higher, 351 nM
- CC[C@](O)(c1cn(Cc2ccc3c(-c4ccccc4)cc(C(N)=O)nc3c2)nn1)C(F)(F)F [Example 69, (S)-7-({4-[1-hydroxy-1-(trifluoromethyl)propyl]-1H-1,2,3-triazol-1-yl}methyl)-4-phenylquinoline-2-carboxamide] — within 1.5-fold, 35 nM
- CCC(O)(CC)c1cn(Cc2ccc3c(-c4ccc(F)cc4)cc(=O)oc3c2)nn1 [Example 16, 7-[4-(1-Ethyl-1-hydroxy-propyl)-[1,2,3]triazol-1-ylmethyl]-4-(4-fluoro-phenyl)-chromen-2-one] — 8.7-fold higher, 442 nM
